Measurements: PubChem BioAssay AID179 (DTP/NCI, 2004)
Where “and” joins values, the source holds several entries; their conditions need not be identical. Identical values can stand only once. Where a SMILES comes first, the peptide text is derived from it. Bridges are numbered along the chain shown (N, C = ends). Roman numbers before positions name the chains, in order. The star is where a group is joined. Cbz = O=C(OCc1ccccc1)*

System: CEM cells HIV-1 protection, formazan growth assay
Experiment: NCI AIDS Antiviral Assay
Settings: for IC50: measured here: growth of uninfected CEM cells
Protocol: The ability of compounds to protect human CEM cells from HIV-1 infection is measured as a screen for new compounds capable of inhibiting the HIV virus. Five concentrations of drug were tested on uninfected and infected cells and cell growth was measured using a soluble formazan assay. […] Compounds that provided at least 50% protection were retested. Compounds that provided at least 50% protection on retest were listed as moderately active. Compounds that reproducibly provided 100% protection were listed as confirmed active. […] Note that the inability to provide protection could be due to toxicity.

SMILES | EC50 [µM] | IC50
CCOP(OCC)SSCn1nc2ccc3ccccc3n2c1=O | > 200 | 70.8 µM
CC(=O)/C(=C/n1c(=S)[nH]c2ccccc21)C(=O)Nc1ccc([N+](=O)[O-])cc1 | > 200 | 105 µM
Cc1cn(C2CC(S(=O)c3ccccc3)C(CO)O2)c(=O)[nH]c1=O (configuration not stated) | > 200 | > 200 µM
O=C1/C(=C/c2ccccc2)CCc2ccccc21 | > 200 | 11.5 µM
C=C(C)[C@@H]1CC[C@]2(C)CC[C@@]3(C)[C@]4(C)CC[C@H]5C(C)(C)[C@@H](OC(=O)CCC(=O)O)CC[C@]5(C)[C@H]4CC[C@]3(C)[C@@H]12 | 44.7 | > 100 µM
COc1ccc([C@@H]2CC(=O)N2)cc1 | > 200 | > 200 µM
CO/S(=N/S(=O)(=O)c1ccccc1)c1ccccc1[N+](=O)[O-] (configuration not stated) | > 380 | 102 µM
C/C=C/CP(=O)(c1ccccc1)c1ccccc1 | 0.0631 | > 200 µM
N#CC(/C(=N/NC(N)=S)C(=O)Nc1cccc(Cl)c1)c1ccccc1 (configuration not stated) | > 19.5 | 10.5 µM
CCOC(=O)C(Cc1ccc(O)cc1)NC(=O)C(CSSCC(NC(=O)OCc1ccccc1)C(=O)NC(Cc1ccc(O)cc1)C(=O)OCC)NC(=O)OCc1ccccc1 (stereo not drawn) (I: Cbz-Cys-Tyr-OEt / II: Cbz-Cys-Tyr-OEt; disulfide I:1-II:1; configuration not given here) | > 100 | 15.5 µM
COC(=O)/C(=N/O)C(C(=O)C=C(C)C)C(=O)C(=O)Nc1nc2ccc([N+](=O)[O-])cc2s1 (configuration not stated) | > 41.7 | 32.4 µM
CC(=O)Oc1ccc2c(c1)nnn2C(C)=O | > 200 | > 200 µM
C=CCNC(=O)N(CCCCC(NC(C)=O)C(=O)NCc1ccccc1)Cc1ccccc1 (configuration not stated) | > 550 | 372 µM
COc1ccc2c(c1)CC[C@@H]1[C@@H]2CC[C@]2(C)C(=O)/C(=N/O)C[C@@H]12 | > 200 | 8.51 µM
Cc1ccc(C2=Nc3c(N)nc(N)nc3NC(c3ccccc3)C2)cc1 (configuration not stated) | > 200 | 4.27 µM and 3.72 µM
CCN(CC)CCCCC1CCN(CC(=O)N2c3ccccc3NC(=O)c3ccccc32)CC1 | > 282 | 158 µM

SMILES | EC50 [µM] | IC50
O=C1NCc2c1[nH]c(=O)[nH]c2=O | > 155 | > 155 µM
CC(C)=CC1CC(C)C2(CCC3(C)CC4C5/C(=C\CC32)C(=O)OC5CC4(C)O)O1 (configuration not stated) | > 2 | 0.398 µM
CC1CCc2[nH]nc(CC3CC(=O)NC(=O)C3)c2C1 (configuration not stated) | > 200 | > 200 µM
COc1ccc(-c2cc(-c3ccccc3)n(C3OC(COC(C)=O)C(OC(C)=O)C(OC(C)=O)C3OC(C)=O)c(=S)c2C#N)cc1 (configuration not stated) | > 166 | 32.4 µM
CCCCCCOc1ccc(C(=O)NOC)cc1 | > 200 | 110 µM
CN(C)c1nc(N)c(C#N)c(C#N)c1C#N | > 200 | 8.71 µM
COC(=O)Nc1nc2ccc(C(=O)c3ccccc3)cc2[nH]1 | > 2 | 0.0692 µM
CCc1cccc(C(C)(C)C)c1NC(=S)N/C=C(\C#N)C(=O)c1ccc2ccccc2c1 | > 200 | 93.3 µM
CSC(=NC(=O)c1ccccc1Cl)SCCSC(=NC(=O)c1ccccc1Cl)SC | > 347 | > 347 µM
CC(C)(O)c1cc2nc3ccccc3nc2n1CCO | > 200 | > 200 µM
NC(CC1=CS(=O)(=O)c2ccc(Cl)cc21)C(=O)O (configuration not stated) | > 200 | > 200 µM
O=C1/C(=C\c2ccccc2)CN(C(=O)CCN2CCCCC2)C/C1=C/c1ccccc1 | > 151 | 0.794 µM
CC(C)C1=CC23CCC4C(C)(C(=O)O)CCCC4(C)C2CC1C1C(=O)N(c2cccc(N4C(=O)C5C6CC7C8(C)CCCC(C)(C(=O)O)C8CCC7(C=C6C(C)C)C5C4=O)c2)C(=O)C13 (configuration not stated) | > 269 | 13.2 µM
COc1cc(C)c(Br)c2c1C(=O)C(Br)(Br)CC2 | > 200 | 0.309 µM
CN(C)c1ccc(/C=c2\sc3nnc(Cc4ccccc4)n3c2=O)cc1 | > 3.98 | > 3.98 µM
